The assay has as its system M. tuberculosis, drug resistant strain Vertulla. It counts as cell-based, Mycobacterium tuberculosis (in human macrophages). As to conditions: for CFU: duplicate values.

Several values for one entry are separate records, joined by “and”; a condition that tells them apart may be missing. Equal entries are not always repeated. Entries after “also recorded” stand apart in the source; their conditions may differ. Where two headings read alike, the source gives them in different places.

`NCC[C@H](O)C(=O)N[C@@H]1C[C@H](N)[C@@H](O[C@H]2O[C@H](CN)[C@@H](O)[C@H](O)[C@H]2O)[C@H](O)[C@H]1O[C@H]1O[C@H](CO)[C@@H](O)[C@H](N)[C@H]1O` [amikacin]: the CFU was 9.3 1 × 10^3 cfu per monolayer and 8.0 1 × 10^3 cfu per monolayer (4 μg/ml, day 4); 5 1 × 10^3 cfu per monolayer and 4 1 × 10^3 cfu per monolayer (8 μg/ml, day 4); 4.5 1 × 10^3 cfu per monolayer and 6.2 1 × 10^3 cfu per monolayer (8 μg/ml, day 7); 5 1 × 10^3 cfu per monolayer and 5.4 1 × 10^3 cfu per monolayer (16 μg/ml, day 4); 3.7 1 × 10^3 cfu per monolayer and 4.1 1 × 10^3 cfu per monolayer (16 μg/ml, day 7). For the same molecule, the “inhibition / killing of drug resistant bacteria (in words)” value (4, 8 and 16 μg/ml, killing = fewer cfu than previous time point, listed as free amikacin) is given as “at the most, inhibition; also recorded: only inhibit the growth of the infection without killing”.

The values are drawn from US5756121A, “Antibiotic formulation and use for drug resistant infections” (NeXstar Pharmaceuticals, Inc., priority 1995, dated 1998).
